Source: patent publication US5273989A, “3,5-disubstituted 2-isoxazolines and isoxazoles, agents containing them and their use” (Hoechst Aktiengesellschaft, priority 1990, dated 1993)
Where a name gives a salt, the structure may show the parent alone. Read-outs that look alike come from different tables or passages of the source.

Legend:
[1] = system: NMDA-induced cramps; experiment: Inhibition of NMDA-induced cramps in the mouse; type: in vivo; conditions: po, 1 h; for inhibition in vivo at 0.3 mg/kg: 0.3 mg/kg p.o.
Method: 4. Inhibition of NMDA-induced-cramps in the mouse
The examples listed below show neuroprotective activity in that they antagonize the cramps induced by NMDA (N-methyl-(D)-aspartate). To this end, intravenous injections of 20-30 mg/kg of NMDA are carried out on a male NMRI (Naval Medical Research Institute) mice of 22-24 g body weight, which leads to stereotypes, clonic cramps and in the majority of cases to mortality. In order to investigate an NMDA-antagonist activity of the test substances, they are administered orally one hour before NMDA. The animals are then observed for the abovementioned symptoms for up to 60 min. The number of animals with clonic cramps and the incidence of mortality, expressed in percent change compared to the control group, is regarded as the evaluation criterion.

[2] = Toxicity (LD50) in the mouse; conditions: in vivo
Excerpt: As the examples investigated show considerable differences in toxicity compared to the standard substances, the LD50 values are also listed in Table 6,

[3] = system: high affinity 3H-D-aspartate absorption, synaptic vesicles (synaptosomes) from rat cortex; experiment: "High affinity" absorption of 3H-aspartate in a vesicle preparation from rat brain; type: biochemical; conditions: for Stimulation of the 3H-D-aspartate absorption, Stimulation (%): relative to control values (100%)
Method: 1. "High affinity" absorption of ^3 H-aspartate in a vesicle preparation from rat brain.
Test principle: Fresh synaptic vesicles (synaptosomes) from rat cortex are incubated with buffer solution and ^3 H-D-aspartate and ^3 H-D-aspartate in the vesicles is measured. Preparations which in comparison to control synaptosomes increase the high affinity ^3 H-D-aspartate absorption and those which prevent the loss of ^3 H-D-aspartate by reliberation are regarded as particularly interesting.
Experimental protocol: The experiments for ^3 H-D-aspartate absorption were carried out by the method of Anand et al. (Biochem. Pharmacol., 35 (1986), 1055-1057). The synaptic vesicles were dissected out of cerebral cortex from male Sprague-Dawley rats. The preparations were tested at four concentrations as double samples in parallel with control samples containing buffer. The incubation medium (pH 7.4) contains: 1.2 mM KH2 PO4, 5 mM KCl, 5 mM pyruvate, 1.2 mM glucose, 1.2 mM MgCl2, 114 mM NaCl, 25 mM NaHCO3. For the non-specific ^3 H-D-aspartate absorption, NaCl was replaced by 114 mM choline chloride and NaHCO3 by 25 mM KHCO3. An aliquot of the vesicle suspension (about 25 μg/ml of test solution) was added to the test sample which was temperature controlled at 37° C. and aerated with Carbogen (5% CO2, 95% O2) and preincubated for 2 minutes. The three minutes incubation for the amino acid absorption was started by addition of 50 μl of ^3 H-D-aspartate (specific activity 25 Ci/mmol, 10 pmol/ml of test solution). The vesicles were separated from the incubation medium by filtration and additional washing of the adhering labeled amino acids using a Titertek cell harvester (Flow Laboratories, Meckenheim). The ^3 H-D-aspartate absorption was measured by means of a liquid scintillation counter (Canberra-Packard, Model 1500, Frankfurt).
The preparation activity is indicated in percent of the specific ^3 H-D-aspartate absorption, relative to control values (100%), in Table 3. Adenosine triphosphate (ATP) was used for comparison as the standard substance (see Table 3) and at 1 mM caused a 35% increase in the ^3 H-D-aspartate absorption.

[4] = system: CA1 pyramidal cells of the hippocampus after forebrain ischemia; experiment: Neuroprotection after forebrain ischemia in the gerbil; conditions: for Cell necroses (% change) / Behavior score (% change): 15 minutes before ischemia; for Cell necroses (% change): histopathological score CA1, treated versus control group; for Behavior score (% change): treated versus control group
Method: A 5-minutes' ischemia of the forebrain with subsequent recirculation is produced in 20 male Mongolian gerbils under halothane anesthesia by bilateral closure of the corotid artery by means of aneurysm clips. 7 days later, the animals are decapitated under halothane anesthesia, the brains are fixed by immersion in Carnoy solution and the extent of neuron damage in the CA1 region of the hippocampus is determined "blind" with the aid of a 5-stage histopathological score. The test substance is administered intraperitoneally or orally 15 minutes before ischemia to each group of 10 gerbils. One ischemic control group, also of 10 animals, is treated with the respective solvents per test substance.

[5] = 50 mg/kg p.o., one hour before NMDA i.v., change compared to control group, read-out: Inhibition of convulsions
[6] = preparation concentration 100 μM
[7] = preparation concentration 10 μM
[8] = preparation concentration 500 μM
[9] = preparation concentration 1000 μM (1 mM)
[10] = read-out: Inhibition of mortality
[11] = one hour before NMDA i.v., change compared to control group, read-out: Inhibition of convulsions
[12] = one hour before NMDA i.v., change compared to control group, read-out: Inhibition of mortality

## NCC1CC(CCC(=O)O)=NO1 (racemic) [Example 29, 5-Aminomethyl-2-isoxazoline-3-propionic acid, racemate]
[1]; [5]
  inhibition in vivo at 50 mg/kg: 20%
[2]; iv
  LD50: > 200 mg/kg

## C[C@H]1C[C@@H](OC(=O)CCc2cc(CN)on2)CC(C)(C)C1 (relative stereo) [Example 9, cis-(3,3,5)trimethylcyclohexyl 5-aminomethylisoxazole-3-propionate toluene-4-sulfonate]
[3]; [6]
  Stimulation of the 3H-D-aspartate absorption, Stimulation (%): 19%

## C[C@H]1C[C@@H](OC(=O)CCc2cc(C[N+](C)(C)C)on2)CC(C)(C)C1 (relative stereo) [Example 58, cis-(3,3,5)-trimethylcyclohexyl-5-trimethylammoniomethylisoxazole-3-propionate iodide]
[3]; [7]
  Stimulation of the 3H-D-aspartate absorption, Stimulation (%): 35%

## NCC1CC(CCC(=O)O)=NO1 (single isomer, unassigned) [Example 31, 5-Aminomethyl-2-isoxazoline-3-propionic acid, (+)-enantiomer]
[3]; [8]
  Stimulation of the 3H-D-aspartate absorption, Stimulation (%): 21%

## CC(C)[C@H]1CC[C@H](C)C[C@@H]1OC(=O)CCC1=NOC(CN)C1 (single isomer, unassigned; (+)) [Example 27, (+)-Menthyl 5-aminomethyl-2-isoxazoline-3-propionate toluene-4-sulfonate]
[1]; [5]
  inhibition in vivo at 50 mg/kg: 20%
[2]; iv
  LD50: 50 to 100 mg/kg

## CC(C)[C@@H]1CC[C@@H](C)C[C@H]1OC(=O)CCC1=NOC(CN)C1 (single isomer, unassigned; (-)) [Example 28, (-)-Menthyl 5-aminomethyl-2-isoxazoline-3-propionate toluene-4-sulfonate]
[1]; [5]
  inhibition in vivo at 50 mg/kg: 20%

## Nc1ncnc2c1ncn2[C@@H]1O[C@H](COP(=O)(O)OP(=O)(O)OP(=O)(O)O)[C@@H](O)[C@H]1O [ATP, Adenosine triphosphate, reference compound]
[3]; at a lower concentration than 500 μm
  activity on 3H-D-aspartate absorption (in words): inactive
[3]; [8]
  Stimulation of the 3H-D-aspartate absorption, Stimulation (%): 31%
[3]; [9]
  Stimulation of the 3H-D-aspartate absorption, Stimulation (%): 35%
[3]; preparation concentration 2000 μM
  Stimulation of the 3H-D-aspartate absorption, Stimulation (%): 57%
[3]; preparation concentration 5000 μM
  Stimulation of the 3H-D-aspartate absorption, Stimulation (%): 121%

## Cl.O=C(C1=NOC(CN2CCCC2)C1)N1CCCC1 (centres unmarked) [Example 3, 5-Pyrrolidinomethyl-3-pyrrolidinocarbonyl-2-isoxazoline hydrochloride]
[3]; [8]
  Stimulation of the 3H-D-aspartate absorption, Stimulation (%): 20%

## CCOC(=O)CCc1cc(CN)on1.Cl [Example 6, ethyl 5-aminomethylisoxazole-3-propionate hydrochloride]
[3]; [7]
  Stimulation of the 3H-D-aspartate absorption, Stimulation (%): 17%
[1]; [5]
  inhibition in vivo at 50 mg/kg: 20%
[1]; [10]
  inhibition in vivo at 50 mg/kg: 40%
[2]; iv
  LD50: > 100 mg/kg

## CCOP(C)(=O)CCc1cc(CN)on1 (centres unmarked) [Example 10, ethyl 2-(5-aminomethylisoxazole-3-yl)ethyl-2-(P-methyl)phosphinic acid hydrochloride]
[3]; [8]
  Stimulation of the 3H-D-aspartate absorption, Stimulation (%): 23%
[1]; [5]
  inhibition in vivo at 50 mg/kg: 10%
[1]; 50 mg/kg p.o., one hour before NMDA i.v., change compared to control group, read-out: Inhibition of mortality
  inhibition in vivo at 50 mg/kg: 70%
[2]; iv
  LD50: > 100 mg/kg

## CC(C)(N)c1cc(CCC(=O)O)no1 [Example 13, 5-(1-Amino-1-methylethyl)isoxazole-3-propionic acid]
[3]; [8]
  Stimulation of the 3H-D-aspartate absorption, Stimulation (%): 33%

## O=C(O)CCc1cc(CNCc2ccccc2)on1 [Example 14, 5-Benzylaminomethylisoxazole-3-propionic acid]
[3]; [8]
  Stimulation of the 3H-D-aspartate absorption, Stimulation (%): 19%
[1]; [5]
  inhibition in vivo at 50 mg/kg: 40%
[2]; ip
  LD50: > 300 mg/kg

## CN(C)Cc1cc(CCC(=O)O)no1 [Example 15, 5-Dimethylaminomethylizoxazole-3-propionic acid]
[1]; [5]
  inhibition in vivo at 50 mg/kg: 40%
[1]; [10]
  inhibition in vivo at 50 mg/kg: 100%
[2]; iv
  LD50: > 100 mg/kg

## CP(=O)(O)CCc1cc(CN)on1 [Example 16, 2-(5-Aminomethylisoxazol-3-yl)ethyl-2-(-methyl)phosphinic acid hydrochloride]
[3]; [9]
  Stimulation of the 3H-D-aspartate absorption, Stimulation (%): 19%
[1]; read-out: Inhibition of convulsions
  inhibition in vivo at 50 mg/kg: 30%
[1]; [10]
  inhibition in vivo at 50 mg/kg: 30%
[4]; 50 mg/kg p.o.
  Cell necroses (% change): -27 % change
  Behavior score (% change): 0 % change

## CC(=O)NCc1cc(CCC(=O)O)no1 [Example 17, 5-Acetamidomethylisoxazole-3-propionic acid]
[1]; 30 mg/kg p.o., one hour before NMDA i.v., change compared to control group, read-out: Inhibition of convulsions
  inhibition in vivo at 30 mg/kg: 30%
[1]; [10]
  inhibition in vivo at 30 mg/kg: 100%
[2]; ip
  LD50: > 300 mg/kg

## N=C(N)NCc1cc(CCC(=O)O)no1 [Example 23, 5-Guanidinomethylisoxazole-3-propionic acid]
[1]; [5]
  inhibition in vivo at 50 mg/kg: 40%
[2]; ip
  LD50: > 300 mg/kg

## NCc1cc(CCC(=O)NCC(=O)O)no1 [Example 24, N-(5-Aminomethylisoxazol-3-yl)propionylglycine]
[3]; [8]
  Stimulation of the 3H-D-aspartate absorption, Stimulation (%): 28%

## Cl.NCc1cc(CCO)no1 [Example 25, 5-Aminomethyl-3-(2-hydroxyethyl)isoxazole hydrochloride]
[3]; [8]
  Stimulation of the 3H-D-aspartate absorption, Stimulation (%): 20%

## N.N.O=C(O)CCc1cc(CNCc2cc(CCC(=O)O)no2)on1 [Example 26, Bis(3-[2-carboxyethyl]isoxazol-5-ylmethyl)amine diammonium salt]
[1]; [5]
  inhibition in vivo at 50 mg/kg: 40%
[2]; iv
  LD50: > 100 mg/kg

## CC(=O)NCC1CC(CCC(=O)O)=NO1 (centres unmarked) [Example 32]
[3]; [6]
  Stimulation of the 3H-D-aspartate absorption, Stimulation (%): 19%
[1]; [5]
  inhibition in vivo at 50 mg/kg: 30%
[1]; [10]
  inhibition in vivo at 50 mg/kg: 50%
[2]; iv
  LD50: > 100 mg/kg

## CN(C)C(=O)C1=NOC(CN)C1 (centres unmarked) [Example 39]
[3]; [9]
  Stimulation of the 3H-D-aspartate absorption, Stimulation (%): 14%

## Cl.NCc1cc(CCC(N)=O)no1 [Example 50, 5-aminomethylisoxazole-3-propionamide hydrochloride]
[3]; [8]
  Stimulation of the 3H-D-aspartate absorption, Stimulation (%): 15%

## O=C(O)CCc1cc(CNC(=O)CCC[N+](=O)[O-])on1 [Example 53]
[1]; [5]
  inhibition in vivo at 50 mg/kg: 33%

## COC(=O)CCc1cc(C=NO)no1 [Example 55, methyl-3-hydroxyliminomethyl-isoxazole-5-propionate]
[1]; [5]
  inhibition in vivo at 50 mg/kg: 33%
[1]; [10]
  inhibition in vivo at 50 mg/kg: 100%

## C[C@]12N[C@H](Cc3ccccc31)c1ccccc12 [MK 801, (+)-5-methyl-10,11-dihydro-5H-dibenzo[a,d]cyclohept-5-en-10-imine, reference compound]
[1]; [11]
  inhibition in vivo at 0.3 mg/kg: 60%
[1]; [12]
  inhibition in vivo at 0.3 mg/kg: 60%
[2]; iv
  LD50: 30 to 60 mg/kg

## NCc1cc(=O)[nH]o1 [Muscimol, 5-(aminomethyl)-3(2H)-isoxazolone, reference compound]
[1]; [11]
  inhibition in vivo at 0.3 mg/kg: 40%
[1]; [12]
  inhibition in vivo at 0.3 mg/kg: 60%
[2]; iv
  LD50: 3 to 10 mg/kg
[4]; 5 mg/kg i.p.
  Cell necroses (% change): -74 % change
  Behavior score (% change): +41 % change
[4]; summary of Table 7
  post-ischemic neurological symptoms, behavior score (in words): distinctly more negative post-ischemic symptoms in the behavior score
  protection of cerebral nerve cells / dying cells (in words): reduction in the dying cells
